Read-outs that look alike come from different tables or passages of the source.
Legend:
Assay in all cases: SAMDI mass spectrometry HDAC inhibition assay
Format in all cases: biochemical
HDAC1 = HDAC1 (Homo sapiens (Human), UniProt Q13547); details: for HDAC1 inhibition in words / HDAC1 inhibition, symbol: SAMDI; for inhibition at 10 µM: given if the IC50 was above 10 μM
Protocol: (§1) There is precedence that fluorescently labeled substrates can perturb enzyme activity and the effect of inhibitors. […] Additionally, 3-hydroxypyridine-2-ones are highly colored solids and might lead to false positive signals. Mindful of these facts, a label-free SAMDI (self-assembled monolayers for MALDI) mass spectrometry assay was also used to assess HDAC inhibition.
(§2) The SAMDI technique, wherein self-assembled monolayers (SAM) of alkanethiolates on gold are analyzed by matrix assisted laser desorption/ionization (MALDI) mass spectrometry, has been widely used to characterize many biochemical activities, including the deacetylase enzyme family.

HDAC8 = HDAC8 (Homo sapiens (Human), UniProt Q9BY41); details: for inhibition at 10 µM: given if the IC50 was above 10 μM
Sequence of HDAC8 (Q9BY41 whole entry): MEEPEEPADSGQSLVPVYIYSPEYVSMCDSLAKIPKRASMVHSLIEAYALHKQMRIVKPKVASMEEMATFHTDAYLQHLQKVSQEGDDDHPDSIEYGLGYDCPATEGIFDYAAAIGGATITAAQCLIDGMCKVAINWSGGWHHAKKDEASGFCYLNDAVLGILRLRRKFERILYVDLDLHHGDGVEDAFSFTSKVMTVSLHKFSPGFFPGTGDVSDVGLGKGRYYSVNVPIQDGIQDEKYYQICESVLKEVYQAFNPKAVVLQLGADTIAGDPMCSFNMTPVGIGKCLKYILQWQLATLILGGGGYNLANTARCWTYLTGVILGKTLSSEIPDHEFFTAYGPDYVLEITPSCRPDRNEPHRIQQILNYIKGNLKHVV
Protocol: as §1, §2

HDAC6 = HDAC6 (Homo sapiens (Human), UniProt Q9UBN7); details: for HDAC6 inhibition in words / HDAC6 inhibition, symbol / IC50: SAMDI; for IC50: read-out: HDAC6 IC50; for inhibition at 10 µM: read-out: HDAC6 % inhibition
Sequence of HDAC6 (Q9UBN7 whole entry): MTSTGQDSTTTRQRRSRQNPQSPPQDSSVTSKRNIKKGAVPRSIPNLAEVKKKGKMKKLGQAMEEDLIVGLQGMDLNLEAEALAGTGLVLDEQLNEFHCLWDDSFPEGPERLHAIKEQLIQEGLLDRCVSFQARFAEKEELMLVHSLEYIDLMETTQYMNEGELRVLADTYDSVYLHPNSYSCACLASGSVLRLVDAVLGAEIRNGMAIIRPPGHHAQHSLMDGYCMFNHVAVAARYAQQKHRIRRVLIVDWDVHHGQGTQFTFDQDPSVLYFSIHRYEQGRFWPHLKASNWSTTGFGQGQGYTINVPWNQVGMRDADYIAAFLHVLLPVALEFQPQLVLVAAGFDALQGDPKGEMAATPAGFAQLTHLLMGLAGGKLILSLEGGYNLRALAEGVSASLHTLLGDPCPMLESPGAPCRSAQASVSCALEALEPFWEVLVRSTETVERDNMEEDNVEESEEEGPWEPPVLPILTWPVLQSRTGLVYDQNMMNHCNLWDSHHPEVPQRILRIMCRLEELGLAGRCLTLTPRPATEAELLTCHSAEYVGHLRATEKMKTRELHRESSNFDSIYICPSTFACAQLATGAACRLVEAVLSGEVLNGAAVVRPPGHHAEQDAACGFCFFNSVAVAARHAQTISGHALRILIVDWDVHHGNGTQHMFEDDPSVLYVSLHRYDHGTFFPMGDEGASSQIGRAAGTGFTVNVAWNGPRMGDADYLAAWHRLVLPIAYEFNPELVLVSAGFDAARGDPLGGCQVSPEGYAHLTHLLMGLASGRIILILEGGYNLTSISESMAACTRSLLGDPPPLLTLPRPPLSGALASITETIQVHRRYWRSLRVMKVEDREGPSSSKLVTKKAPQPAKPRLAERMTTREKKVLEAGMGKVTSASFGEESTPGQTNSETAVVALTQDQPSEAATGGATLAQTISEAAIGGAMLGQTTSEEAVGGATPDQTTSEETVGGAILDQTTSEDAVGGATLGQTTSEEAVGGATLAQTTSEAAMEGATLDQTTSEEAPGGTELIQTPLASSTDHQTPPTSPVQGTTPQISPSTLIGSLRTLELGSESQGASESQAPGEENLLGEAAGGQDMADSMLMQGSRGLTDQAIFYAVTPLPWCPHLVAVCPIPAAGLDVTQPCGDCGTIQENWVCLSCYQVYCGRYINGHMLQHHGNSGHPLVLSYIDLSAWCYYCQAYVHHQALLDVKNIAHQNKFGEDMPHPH
Protocol: as §1
as §2, with “family. The SAMDI assay was used to measure the inhibition constant (K1) of fragments against HDAC1, HDAC6 and HDAC8 using a previously identified preferred HDAC substrate.” for “family.”

[1] = SAMDI, read-out: HDAC8 activity (IC50)

Sequence of HDAC1 (Q13547 whole entry): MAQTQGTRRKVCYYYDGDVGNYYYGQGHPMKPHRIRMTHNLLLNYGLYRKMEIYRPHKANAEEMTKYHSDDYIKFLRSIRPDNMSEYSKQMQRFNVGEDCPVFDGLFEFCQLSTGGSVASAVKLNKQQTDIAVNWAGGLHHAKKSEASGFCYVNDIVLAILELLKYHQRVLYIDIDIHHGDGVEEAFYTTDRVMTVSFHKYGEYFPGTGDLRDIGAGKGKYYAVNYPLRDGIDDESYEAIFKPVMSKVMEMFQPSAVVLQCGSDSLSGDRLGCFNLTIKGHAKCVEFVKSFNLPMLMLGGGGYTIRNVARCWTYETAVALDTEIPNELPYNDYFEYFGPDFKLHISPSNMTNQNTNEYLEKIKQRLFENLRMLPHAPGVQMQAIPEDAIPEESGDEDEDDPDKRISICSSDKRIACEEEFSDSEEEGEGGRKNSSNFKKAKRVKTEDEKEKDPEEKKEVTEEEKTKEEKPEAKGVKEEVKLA

SMILES	IC50 (HDAC6)	inhibition at 10 µM (HDAC8)	HDAC1 inhibition, symbol (HDAC1)	HDAC6 inhibition, symbol (HDAC6)	further results
O=c1[nH]cccc1O [3-hydroxypyridine-2-one, reference compound]	–	–	NI (No significant Inhibition (below 20% Inhibition))	NI (No significant Inhibition (below 20% Inhibition))	HDAC1 inhibition in words (HDAC1): inactive; HDAC8 inhibition in words (HDAC8; SAMDI): inactive; HDAC8 inhibition, symbol (HDAC8; SAMDI): NI (No significant Inhibition (below 20% Inhibition)); HDAC6 inhibition in words (HDAC6): inactive
Oc1ccc[nH]c1=S [3-hydroxypyridine-2-thione, reference compound]	681 ± 110 nM	–	NI (No significant Inhibition (below 20% Inhibition))	–	HDAC1 inhibition in words (HDAC1): inactive; HDAC8 inhibition in words (HDAC8; SAMDI): low micromolar IC50 values; IC50 (HDAC8; Table 14, read-out: HDAC 8 (nm)): 3680 ± 1200 nM; HDAC6 inhibition in words (HDAC6): low micromolar IC50 values
Cn1cccc(O)c1=O [Compound 142a, 1-Methyl-3-hydroxypyridine-2-one]	–	8%	NI (No significant Inhibition (below 20% Inhibition))	NI (No significant Inhibition (below 20% Inhibition))	–
O=c1c(O)cccn1Cc1ccccc1 [Compound 142b, 1-Benzyl-3-hydroxypyridine-2-one]	–	8%	NI (No significant Inhibition (below 20% Inhibition))	NI (No significant Inhibition (below 20% Inhibition))	–
O=c1c(O)cccn1Cc1ccc(-c2ccccc2)cc1 [Compound 142c, 1-(1,1′-Biphenylmethyl)-3-hydroxypyridine-2-one]	–	8%	NI (No significant Inhibition (below 20% Inhibition))	NI (No significant Inhibition (below 20% Inhibition))	–
N#Cc1ccc(-c2ccc(Cn3cccc(O)c3=O)cc2)cc1 [Compound 148a]	–	16%	NI (No significant Inhibition (below 20% Inhibition))	NI (No significant Inhibition (below 20% Inhibition))	–
N#Cc1cccc(-c2ccc(Cn3cccc(O)c3=O)cc2)c1 [Compound 148b, 1-(3-Cyano-(1,1′-biphenylmethyl))-3-hydroxyoxypyridine-2-one]	–	9%	NI (No significant Inhibition (below 20% Inhibition))	NI (No significant Inhibition (below 20% Inhibition))	–
N#Cc1ccccc1-c1ccc(Cn2cccc(O)c2=O)cc1 [Compound 148c, 1-(2-Cyano-(1,1′-biphenylmethyl))-3-hydroxyoxypyridine-2-one]	–	9%	NI (No significant Inhibition (below 20% Inhibition))	–	inhibition at 10 µM (HDAC6): 5%
Cc1ccc(-c2ccc(Cn3cccc(O)c3=O)cc2)cc1 [Compound 148d, 1-(4-Methyl-(1,1′-biphenylmethyl))-3-hydroxyoxypyridine-2-one]	–	25%	NI (No significant Inhibition (below 20% Inhibition))	NI (No significant Inhibition (below 20% Inhibition))	–
Cc1cccc(-c2ccc(Cn3cccc(O)c3=O)cc2)c1 [Compound 148e, 1-(3-Methyl-(1,1′-biphenylmethyl))-3-hydroxyoxypyridine-2-one]	–	–	NI (No significant Inhibition (below 20% Inhibition))	NI (No significant Inhibition (below 20% Inhibition))	HDAC8 inhibition, symbol (HDAC8; SAMDI): NI (No significant Inhibition (below 20% Inhibition))
Cc1ccccc1-c1ccc(Cn2cccc(O)c2=O)cc1 [Compound 148f, 1-(2-Methyl-(1,1′-biphenylmethyl))-3-hydroxyoxypyridine-2-one]	–	9%	NI (No significant Inhibition (below 20% Inhibition))	NI (No significant Inhibition (below 20% Inhibition))	–
CN(C)c1ccc(-c2ccc(Cn3cccc(O)c3=O)cc2)cc1 [Compound 148g, 1-(4-Dimethylamino-(1,1′-biphenylmethyl))-3-hydroxyoxypyridine-2-one]	–	35%	NI (No significant Inhibition (below 20% Inhibition))	–	inhibition at 10 µM (HDAC6): 11%
CN(C)c1ccc(-c2ccc(Cn3cccc(O)c3=O)cc2)cn1 [Compound 148h]	–	37%	NI (No significant Inhibition (below 20% Inhibition))	NI (No significant Inhibition (below 20% Inhibition))	–
O=c1c(O)cccn1Cc1ccc(-c2ccncc2)cc1 [Compound 148i, 1-(4-(Pyridine-4-yl)benzyl)-3-hydroxypyridine-2-one]	–	16%	NI (No significant Inhibition (below 20% Inhibition))	NI (No significant Inhibition (below 20% Inhibition))	–
N#Cc1ccc(-c2ccc(Cn3cccc(O)c3=S)cc2)cc1 [Compound 149a, 1-(4-Cyano-(1,1′-biphenylmethyl))-3-hydroxyoxypyridine-2-thione]	957 ± 159 nM	–	NI (No significant Inhibition (below 20% Inhibition))	–	IC50 (HDAC8; SAMDI, read-out: HDAC8 IC50): 2080 ± 459 nM; IC50 (HDAC8; [1]): ~2000 nM
N#Cc1cccc(-c2ccc(Cn3cccc(O)c3=S)cc2)c1 [Compound 149b, 1-(3-Cyano-(1,1′-biphenylmethyl))-3-hydroxyoxypyridine-2-thione]	–	–	NI (No significant Inhibition (below 20% Inhibition))	–	IC50 (HDAC8; SAMDI, read-out: HDAC8 IC50): 1700 ± 717 nM; IC50 (HDAC8; [1]): ~2000 nM; inhibition at 10 µM (HDAC6): 44%
CN(C)c1ccc(-c2ccc(Cn3cccc(O)c3=S)cc2)cn1 [Compound 149h]	2390 ± 458 nM	34%	NI (No significant Inhibition (below 20% Inhibition))	–	–
CN(C)c1ccc(-n2cc(Cn3cccc(O)c3=O)nn2)cc1 [Compound 152b, 1-(4-Dimethylamino)phenylltriazolylmethyl-3-hydroxypyridine-2-one]	–	8%	NI (No significant Inhibition (below 20% Inhibition))	NI (No significant Inhibition (below 20% Inhibition))	–
Oc1cccn(CCCCCCn2cc(-c3ccccc3)nn2)c1=S [Compound 162e, 1-Phenyltriazolylhexyl-3-hydroxypyridine-2-thione]	–	–	–	–	inhibition at 10 µM (HDAC1): 23%; inhibition at 10 µM (HDAC6): 22%
Cc1ccc(-c2cn(CCCCCn3cccc(O)c3=S)nn2)cc1 [Compound 167a, 1-(4-Tolyl)triazolylpentyl-3-hydroxypyridine-2-thione]	–	–	–	–	inhibition at 10 µM (HDAC1): 31%
Cc1cccc(-c2cn(CCCCCn3cccc(O)c3=S)nn2)c1 [Compound 167b, 1-(3-Tolyl)triazolylpentyl-3-hydroxypyridine-2-thione]	–	–	–	–	inhibition at 10 µM (HDAC1): 19%

Continued, in another order:

IC50 (HDAC6)	inhibition at 10 µM (HDAC8)	SMILES	HDAC1 inhibition, symbol (HDAC1)	HDAC6 inhibition, symbol (HDAC6)	further results
457 ± 27 nM	–	Oc1cccn(Cc2ccccc2)c1=S [Compound 144b, 1-Benzyl-3-hydroxypyridine-2-thione]	NI (No significant Inhibition (below 20% Inhibition))	–	HDAC8 activity, fold superior compared to 144e (HDAC8; SAMDI): 2 fold; IC50 (HDAC8; SAMDI, read-out: HDAC8 IC50): 1270 ± 200 nM
847 ± 188 nM	–	Oc1cccn(Cc2ccc(-c3ccccc3)cc2)c1=S [Compound 144c, 1-(1,1′-Biphenylmethyl)-3-hydroxypyridine-2-thione]	NI (No significant Inhibition (below 20% Inhibition))	–	IC50 (HDAC8; SAMDI, read-out: HDAC8 IC50): 4280 ± 1550 nM
454 ± 42 nM	–	Cc1ccc(-c2ccc(Cn3cccc(O)c3=S)cc2)cc1 [Compound 149d, 1-(4-Methyl-(1,1′-biphenylmethyl))-3-hydroxyoxypyridine-2-thione]	NI (No significant Inhibition (below 20% Inhibition))	–	IC50 (HDAC8; SAMDI, read-out: HDAC8 IC50): 800 ± 304 nM
812 ± 286 nM	–	Cc1cccc(-c2ccc(Cn3cccc(O)c3=S)cc2)c1 [Compound 149e, 1-(3-Methyl-(1,1′-biphenylmethyl))-3-hydroxyoxypyridine-2-thione]	NI (No significant Inhibition (below 20% Inhibition))	–	IC50 (HDAC8; SAMDI, read-out: HDAC8 IC50): 2500 ± 1180 nM
2200 ± 355 nM	–	Oc1cccn(Cc2ccc(-c3ccncc3)cc2)c1=S [Compound 149i, 1-(4-(Pyridin-4-yl)benzyl)-3-hydroxypyridine-2-thione]	NI (No significant Inhibition (below 20% Inhibition))	–	IC50 (HDAC8; SAMDI, read-out: HDAC8 IC50): 2780 ± 323 nM
–	17%	O=c1c(O)cccn1Cc1cn(-c2ccccc2)nn1 [Compound 152a, 1-Phenyltriazolylmethyl-3-hydroxypyridine-2-one]	NI (No significant Inhibition (below 20% Inhibition))	NI (No significant Inhibition (below 20% Inhibition))	–
1020 ± 99 nM	–	CN(C)c1ccc(-n2cc(Cn3cccc(O)c3=S)nn2)cc1 [Compound 154b, 1-(4-Dimethylamino)phenylltriazolylmethyl-3-hydroxypyridine-2-thione]	NI (No significant Inhibition (below 20% Inhibition))	–	IC50 (HDAC8; SAMDI, read-out: HDAC8 IC50): 1870 ± 723 nM
–	63%	Oc1cccn(CCCn2cc(-c3ccccc3)nn2)c1=S [Compound 162b, 1-Phenyltriazolylpropyl-3-hydroxypyridine-2-thione]	–	–	inhibition at 10 µM (HDAC1): 27%
–	4%	Cc1ccccc1-c1cn(CCCCCn2cccc(O)c2=O)nn1 [Compound 166c, 1-(2-Tolyl)triazolylpentyl-3-hydroxypyridine-2-one]	–	NI (No significant Inhibition (below 20% Inhibition))	–
